Results taken from patent publication US10745416B2, “Macrocyclic compounds for treating disease” (Turning Point Therapeutics, Inc., priority 2017, dated 2020).
“Also recorded” adds a separate entry of the source.

Key:
RET = target: T1, RET (Homo sapiens, UniProt P07949, C634W); assay: Immunoblotting for cellular RET phosphorylation in TT cells; format: cell-based; details: 4 hours treatment, read-out: suppression of RET autophosphorylation IC50
T1 construct: host or cells: TT (human medullary thyroid carcinoma)
Method: Human medulla thyroid carcinoma cell line TT (containing RET […] mutation) and acute myelogenous cell line KG-1 were purchased from ATCC. Human colon cancer cell line KMI2 (containing TPM3-TRKA) was obtained from NCI. Half a million cells per well were seeded in 24 well plate for 24 hrs, and then treated with compounds for 4 hours. Cells were collected after treatment and lysed in RIPA buffer (50 mM Tris, pH 7.4, 150 mM NaCl, 1% NP-40, 0.5% Deoxycholate, 0.1% SDS) supplemented with 10 mM EDTA, 1× Halt protease and phosphatase inhibitors (Thermo Scientific). Protein lysates (approximately […]) was resolved on 4-12% Bolt Bis-Tris precasted gels with MES running buffer (Life Technologies), transferred to nitrocellulose membranes using Trans-Blot Turbo Transfer System (Bio-Rad) and detected with antibodies targeting phosphorylated RET (Y905) (Cell Signaling Technology), total RET (Cell Signaling Technology), actin (Cell Signaling Technology). Antibodies were typically incubated overnight at 4° C. with gentle shake, followed by washes and incubation with the appropriate HRP-conjugated secondary antibodies. […] The relative density of the chemiluminescent bands were quantified via Image Studio Digits from LICOR. The half inhibitory concentration (IC50) value is calculated using non-linear regression analysis through GraphPad Prism software (GraphPad, Inc., San Diego, Calif.).

TT tumors = assay: TT thyroid medullary carcinoma subcutaneous xenograft model; format: in vivo, SCID/Beige mice
Method: (§1) BaF3 KIF5B-RET WT and BaF3 KIF5B-RET G810R cells were cultured using standard techniques in RPMI-1640 medium (Corning, Inc) with 10% fetal bovine serum (Thermo Fisher Scientific, Inc) at 37° C. in a humidified atmosphere with 5% CO2. TI cells were cultured using standard techniques in F-12K medium (Corning, Inc) with 10% fetal bovine serum (Thermo Fisher Scientific, Inc) at 37° C. in a humidified atmosphere with 5% CO2. For implantation, cells were harvested and pelleted by centrifugation at 250 g for 2 minutes. Cells were washed once and resuspended in serum-free medium supplemented with 50% matrigel (v/v).
(§2) For cell derived xenograft models, female SCID/Beige mice (5-8 weeks of age) were obtained from Charles River Laboratory and were housed in Innovive IVC disposable cages on HEPA filtered ventilated racks with ad libitum access to rodent chow and water. Five million cells in 100 μL serum-free medium supplemented with 50% matrigel (Corning, Inc) were implanted subcutaneously in the right flank region of the mouse. Tumor size and body weight were measured on designated days. Tumor size was measured with an electronic caliper and tumor volume was calculated as the product of length*width^2*0.5. Mice were randomized by tumor size into treatment groups when tumor volume reached about 200 mm^3 and Compound 5 was administered orally (BID) at determined doses.
(§3) The C634W mutation of RET in T cells underlies the molecular mechanism for tumor growth. SCID/Beige mice bearing TT tumors (at the average tumor size of around 200 mm^3) were dosed with Compound 5 orally BID for 27 days (FIG. 4A). The control group of mice were given vehicle only. Tumor volume (TMV) was measured by caliper on the indicated days and is shown at mean±sem in FIG. 4A. […] Tumor growth inhibition (TGI) was calculated as 100%*{1−[(TMVTreated Last Day of Treatment−TMV^Treated First Day of Treatment)/(TMVControl on Last Day of Treatment−TMVControl on First Day of Treatment)]} when TMVTreated Last Day of Treatment≥TMVTreated First Day of Treatment. In the case of TMVTreated Last Day of Treatment<TMVTreated First Day of Treatment, tumor regression (REG) was calculated as 100%*(1−TMVTreated Last Day of Treatment/TMVTreated First Day of Treatment). […] Tumor size was reduced in 10 out 10 mice treated with Compound 5 at both dose levels.

[1] = system: BaF3 KIF5B-RET G810R tumors; assay: BaF3 KIF5B-RET G810R subcutaneous xenograft tumor model; format: in vivo, SCID/Beige mice
Method: as §1, §2, §3
In the BaF3 KIF5B-RET WT and BaF3 KIF5B-RET G810R xenograft tumor models, the growth of tumor is presumably dependent on the extopic RET activity. SCID/Beige mice bearing BaF3 KIF5B-RET WT tumors (with average tumor size of ˜210 mm^3) were dosed with Compound 5 orally BID for 10 days (FIG. 5A). The control group of mice were given vehicle only. Tumor volume (TMV) was measured by caliper on the indicated days and is shown at mean±sem in FIG. 5A. The mean TMVs are lower in the groups treated with compound 5 at 1 mg/kg BID (p>0.05) and 5 mg/kg BID (p<0.0001) compared to that of the control group as determined by two-way repeated ANOVA followed by post hoc analysis. […] SCID/Beige mice bearing BaF3 KIF5B-RET G810R tumors (with average tumor size of […]) were dosed with Compound 5 orally BID for 14 days (FIG. 6A). […] Tumor volume (TMV) was measured by caliper on the indicated days and is shown at mean±sem in FIG. 6A. The mean TMVs are lower in the groups treated with compound 5 at 1 mg/kg BID (p>0.05), 5 mg/kg BID (p<0.0001) and 10 mg/kg BID (p<0.0001) compared to that of the control group as determined by two-way ANOVA followed by post hoc analysis.

T1 sequence (P07949 29-1114 C634W): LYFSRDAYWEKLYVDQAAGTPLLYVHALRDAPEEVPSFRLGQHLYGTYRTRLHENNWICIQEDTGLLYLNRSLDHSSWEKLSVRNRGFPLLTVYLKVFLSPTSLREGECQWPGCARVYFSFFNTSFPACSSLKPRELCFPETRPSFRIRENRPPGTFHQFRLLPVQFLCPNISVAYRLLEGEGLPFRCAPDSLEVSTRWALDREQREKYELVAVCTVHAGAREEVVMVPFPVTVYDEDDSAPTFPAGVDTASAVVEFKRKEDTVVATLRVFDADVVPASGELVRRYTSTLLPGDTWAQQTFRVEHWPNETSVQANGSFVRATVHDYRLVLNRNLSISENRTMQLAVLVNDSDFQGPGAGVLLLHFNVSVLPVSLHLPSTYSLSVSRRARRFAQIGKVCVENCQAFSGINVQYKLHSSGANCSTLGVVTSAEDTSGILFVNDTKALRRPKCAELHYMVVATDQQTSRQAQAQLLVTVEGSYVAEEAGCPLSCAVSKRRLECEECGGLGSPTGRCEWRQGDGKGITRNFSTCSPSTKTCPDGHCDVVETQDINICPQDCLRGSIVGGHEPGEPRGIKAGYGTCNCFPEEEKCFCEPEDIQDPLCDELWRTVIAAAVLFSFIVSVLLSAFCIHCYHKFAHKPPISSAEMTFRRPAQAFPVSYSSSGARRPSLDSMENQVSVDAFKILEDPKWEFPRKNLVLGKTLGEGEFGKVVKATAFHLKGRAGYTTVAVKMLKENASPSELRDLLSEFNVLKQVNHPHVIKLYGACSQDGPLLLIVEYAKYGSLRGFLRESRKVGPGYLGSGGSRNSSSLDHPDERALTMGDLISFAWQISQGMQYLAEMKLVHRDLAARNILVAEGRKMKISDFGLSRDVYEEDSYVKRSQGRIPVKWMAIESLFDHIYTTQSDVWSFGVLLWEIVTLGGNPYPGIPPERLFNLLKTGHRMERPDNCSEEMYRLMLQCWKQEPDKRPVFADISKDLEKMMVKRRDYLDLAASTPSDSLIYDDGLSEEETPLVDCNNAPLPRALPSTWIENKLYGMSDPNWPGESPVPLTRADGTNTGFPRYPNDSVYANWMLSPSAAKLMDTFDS

- IC50 (RET): ~0.3 nM
SMILES: C[C@H]1CNC(=O)c2cnn3cc4c(nc23)N(Cc2cc(F)cnc2O1)[C@@H]1CCC[C@@H]1O4 [Compound 5, (3aR,11S,20aS)-7-fluoro-11-methyl-2,3,3a,12,13,20a-hexahydro-1H,5H-17-19-(metheno)cyclopenta[5,6][1,4] oxazino[3,4-i]pyrazolo[4,3-f]pyrido[3,2-l][1,4,8,10]oxatriazacyclotridecin-14(11H)-one]
- body weight and overt abnormality (TT tumors; 2 mg/kg BID and 5 mg/kg BID, 27 days): No body weight loss or overt abnormality
- mean tumor volume (TMV) compared to control group (TT tumors; 2 mg/kg BID and 5 mg/kg BID, 27 days, p<0.0001): decreased tumor size; also recorded: significantly lower
- tumor regression (REG) (TT tumors; 2 mg/kg BID orally for 27 days): 27%
- tumor regression (REG) (TT tumors; 5 mg/kg BID orally for 27 days): 35%
- mean tumor volume (TMV) compared to control group ([1]; 1 mg/kg BID (p>0.05), 5 mg/kg BID (p<0.0001) and 10 mg/kg BID (p<0.0001), 14 days): lower
- tumor growth inhibition (TGI) ([1]; 1 mg/kg BID orally for 14 days): 22%
- tumor regression ([1]; 5 mg/kg BID orally for 14 days): 39%
- tumor regression (in words) ([1]; 10 mg/kg BID orally for 14 days): complete tumor regression
- body weight and overt abnormality ([1]; 1, 5 and 10 mg/kg BID, 14 days treatment period): No body weight loss or overt abnormality
